Reference: patent US20180265515A1 (Genentech, Inc., priority 2015, published 2018)

What was measured:
[1] = target: T1, isolated recombinant JAK2 kinase domain (Homo sapiens, UniProt O60674); experiment: JAK2 enzyme assay (Caliper LabChip, Ki); format: biochemical; conditions: 25 μM ATP
T1 construct: The activity of the isolated recombinant JAK1 and JAK2 kinase domain was measured
Outline: (§1)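 Ki values fitted with Morrison tight-binding equation adjusted for ATP-competitive inhibition, using product-to-total peptide ratio read by Caliper LabChip. Reactions: isolated JAK1 or JAK2 kinase domain with N-terminal 5-carboxyfluorescein JAK3-derived peptide, 22° C for 30 min, quenched by EDTA.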

[2] = tested on: JAK1-dependent STAT6 phosphorylation downstream of IL-13 stimulation in BEAS-2B human bronchial epithelial cells; experiment: JAK1 pathway assay in BEAS-2B cells (IL-13 stimulated STAT6 phosphorylation, MSD); format: cell-based; conditions: read-out: P-STAT6 BEAS2B + IL13 IC50
Outline: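 BEAS-2B human bronchial epithelial cells, plated the day before in complete growth medium, were preincubated with compound for 1 hr at 37° C (0.2% DMSO final), then stimulated with IL-13 at its EC90 for 15 min. STAT6 phosphorylation in lysates was read by MSD; EC50 was taken as 50% inhibition versus DMSO control.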

[3] = target: T2, isolated recombinant JAK1 kinase domain (Homo sapiens, UniProt P23458); experiment: JAK1 enzyme assay (Caliper LabChip, Ki); format: biochemical; conditions: recombinant JAK1 kinase domain, 25 μM ATP
T2 construct: The activity of the isolated recombinant JAK1 and JAK2 kinase domain was measured
Outline: as §1

T1 sequence (O60674 849-1124 limits assumed): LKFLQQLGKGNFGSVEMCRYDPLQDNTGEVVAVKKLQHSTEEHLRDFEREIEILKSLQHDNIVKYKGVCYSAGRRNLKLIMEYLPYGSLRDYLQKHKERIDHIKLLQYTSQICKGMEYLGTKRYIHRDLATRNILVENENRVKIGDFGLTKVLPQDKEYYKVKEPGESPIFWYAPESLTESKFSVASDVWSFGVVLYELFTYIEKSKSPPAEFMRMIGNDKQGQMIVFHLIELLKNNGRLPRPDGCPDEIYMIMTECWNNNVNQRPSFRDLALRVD
T2 sequence (P23458 875-1153 limits assumed): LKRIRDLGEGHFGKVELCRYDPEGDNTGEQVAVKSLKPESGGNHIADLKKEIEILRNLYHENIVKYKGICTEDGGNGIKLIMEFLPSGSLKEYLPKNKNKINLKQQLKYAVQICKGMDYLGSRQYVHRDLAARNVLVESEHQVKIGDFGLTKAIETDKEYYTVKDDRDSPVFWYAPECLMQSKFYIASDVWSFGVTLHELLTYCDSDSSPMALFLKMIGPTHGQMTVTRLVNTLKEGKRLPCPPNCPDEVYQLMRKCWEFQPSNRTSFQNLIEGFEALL

Row | Structure (SMILES) | Ki [1] [nM] | IC50 [2] [nM] | Ki [3] [nM]
1 | CSc1ccc(OC(F)F)c(-c2nn(CC(=O)N3CCC(N4CCn5cncc5C4)CC3)cc2NC(=O)c2cnn3cccnc23)c1 [Example 72, N-[3-[2-(difluoromethoxy)-5-methylsulfanyl-phenyl]-1-[2-[4-(6,8-dihydro-5H-imidazo[1,5-a]pyrazin-7-yl)-1-piperidyl]-2-oxo-ethyl]pyrazol-4-yl]pyrazolo[1,5-a]pyrimidine-3-carboxamide] | 0.36 | 110 | 0.4
2 | CSc1ccc(OC(F)F)c(-c2nn(CC(=O)N3CCC(N4CCn5ccnc5C4)CC3)cc2NC(=O)c2cnn3cccnc23)c1 [Example 73, N-[3-[2-(difluoromethoxy)-5-methylsulfanyl-phenyl]-1-[2-[4-(6,8-dihydro-5H-imidazo[1,2-a]pyrazin-7-yl)-1-piperidyl]-2-oxo-ethyl]pyrazol-4-yl]pyrazolo[1,5-a]pyrimidine-3-carboxamide] | 0.25 | 39 | 0.23
3 | CSc1ccc(OC(F)F)c(-c2nn(CC(=O)N3CCC(CN4CCN(C(=O)CN(C)C)CC4)CC3)cc2NC(=O)c2cnn3cccnc23)c1 [Example 74, N-[3-[2-(difluoromethoxy)-5-methylsulfanyl-phenyl]-1-[2-[4-[[4-[2-(dimethylamino)acetyl]piperazin-1-yl]methyl]-1-piperidyl]-2-oxo-ethyl]pyrazol-4-yl]pyrazolo[1,5-a]pyrimidine-3-carboxamide] | 0.58 | 50 | 0.3
4 | CSc1ccc(OC(F)F)c(-c2nn(CC(=O)N3CCC(N4CC5CC(C4)O5)CC3)cc2NC(=O)c2cnn3cccnc23)c1 [Example 75, N-[3-[2-(difluoromethoxy)-5-methylsulfanyl-phenyl]-1-[2-[4-(6-oxa-3-azabicyclo[3.1.1]heptan-3-yl)-1-piperidyl]-2-oxo-ethyl]pyrazol-4-yl]pyrazolo[1,5-a]pyrimidine-3-carboxamide] | 0.38 | 12 | 0.28
5 | CSc1ccc(OC(F)F)c(-c2nn(C3(CC#N)CN(C)C3)cc2NC(=O)c2cnn3cccnc23)c1 [Example 76, N-(1-(3-(cyanomethyl)-1-methylazetidin-3-yl)-3-(2-(difluoromethoxy)-5-(methylthio)phenyl)-1H-pyrazol-4-yl)pyrazolo[1,5-a]pyrimidine-3-carboxamide] | 1 | 60 | 1.4
6 | CSc1ccc(OC(F)F)c(-c2nn(C3(CC#N)CNC3)cc2NC(=O)c2cnn3cccnc23)c1 [Example 77, N-(1-(3-(cyanomethyl)azetidin-3-yl)-3-(2-(difluoromethoxy)-5-(methylthio)phenyl)-1H-pyrazol-4-yl)pyrazolo[1,5-a]pyrimidine-3-carboxamide] | 0.33 | 27 | 0.47
7 | CSc1ccc(OC(F)F)c(-c2nn(C3(CC#N)CN(C(=O)OC(C)(C)C)C3)cc2NC(=O)c2cnn3cccnc23)c1 [Example 78, tert-butyl 3-(cyanomethyl)-3-[3-[2-(difluoromethoxy)-5-methylsulfanyl-phenyl]-4-(pyrazolo[1,5-a]pyrimidine-3-carbonylamino)pyrazol-1-yl]azetidine-1-carboxylate] | 0.72 | 69 | 0.92
8 | CSc1ccc(OC(F)F)c(-c2nn(CC(=O)N3CCC(N4CCn5nccc5C4)CC3)cc2NC(=O)c2cnn3cccnc23)c1 [Example 79, N-[3-[2-(difluoromethoxy)-5-methylsulfanyl-phenyl]-1-[2-[4-(6,7-dihydro-4H-pyrazolo[1,5-a]pyrazin-5-yl)-1-piperidyl]-2-oxo-ethyl]pyrazol-4-yl]pyrazolo[1,5-a]pyrimidine-3-carboxamide] | 0.44 | 35 | 0.39
9 | CSc1ccc(OC(F)F)c(-c2nn(CC(=O)N3CCC(CN4CCN(C(C)=O)CC4)CC3)cc2NC(=O)c2cnn3cccnc23)c1 [Example 80, N-[1-[2-[4-[(4-acetylpiperazin-1-yl)methyl]-1-piperidyl]-2-oxo-ethy]-3-[2-(difluoromethoxy)-5-methylsulfanyl-phenyl]pyrazol-4-yl]pyrazolo[1,5-a]pyrimidine-3-carboxamide] | 0.43 | 16 | 0.26
10 | CSc1ccc(OC(F)F)c(-c2nn(Cc3cn(C4CCN(C5CCOCC5)CC4)nn3)cc2NC(=O)c2cnn3cccnc23)c1 [Example 81, N-(3-(2-(difluoromethoxy)-5-(methylthio)phenyl)-1-((1-(1-(tetrahydro-2H-pyran-4-yl)piperidin-4-yl)-1H-1,2,3-triazol-4-yl)methyl)-1H-pyrazol-4-yl)pyrazolo[1,5-a]pyrimidine-3-carboxamide] | 0.23 | 8.1 | 0.35
11 | COCC(=O)N1CCN(CC2CCN(C(=O)Cn3cc(NC(=O)c4cnn5cccnc45)c(-c4cc(SC)ccc4OC(F)F)n3)CC2)CC1 [Example 82, N-[3-[2-(difluoromethoxy)-5-methylsulfanyl-phenyl]-1-[2-[4-[[4-(2-methoxyacetyl)piperazin-1-yl]methyl]-1-piperidyl]-2-oxo-ethyl]pyrazol-4-yl]pyrazolo[1,5-a]pyrimidine-3-carboxamide] | 0.41 | 34 | 0.29
12 | COC(=O)N1CCN(CC2CCN(C(=O)Cn3cc(NC(=O)c4cnn5cccnc45)c(-c4cc(SC)ccc4OC(F)F)n3)CC2)CC1 [Example 83, methyl 4-[[1-[2-[3-[2-(difluoromethoxy)-5-methylsulfanyl-phenyl]-4-(pyrazolo[1,5-a]pyrimidine-3-carbonylamino)pyrazol-1-yl]acetyl]-4-piperidyl]methyl]piperazine-1-carboxylate] | 0.44 | 10 | 0.3
13 | CSc1ccc(OC(F)F)c(-c2nn(CC(=O)N3CCC(N4CCO[C@H](CO)C4)CC3)cc2NC(=O)c2cnn3cccnc23)c1 [Example 84, N-[3-[2-(difluoromethoxy)-5-methylsulfanyl-phenyl]-1-[2-[4-[(2S)-2-(hydroxymethyl)morpholin-4-yl]-1-piperidyl]-2-oxo-ethyl]pyrazol-4-yl]pyrazolo[1,5-a]pyrimidine-3-carboxamide] | 0.53 | 44 | 0.37
14 | CSc1ccc(OC(F)F)c(-c2nn(CC(=O)N3CCC(N4CCOCC4CO)CC3)cc2NC(=O)c2cnn3cccnc23)c1 (stereo not drawn) [Example 85, N-[3-[2-(difluoromethoxy)-5-methylsulfanyl-phenyl]-1-[2-[4-[3-(hydroxymethyl)morpholin-4-yl]-1-piperidyl]-2-oxo-ethyl]pyrazol-4-yl]pyrazolo[1,5-a]pyrimidine-3-carboxamide] | 0.38 | 110 | 0.33
15 | CSc1ccc(OC(F)F)c(-c2nn(CC(=O)N3CCC(N4CCO[C@@H](CO)C4)CC3)cc2NC(=O)c2cnn3cccnc23)c1 [Example 86, N-[3-[2-(difluoromethoxy)-5-methylsulfanyl-phenyl]-1-[2-[4-[(2R)-2-(hydroxymethyl)morpholin-4-yl]-1-piperidyl]-2-oxo-ethyl]pyrazol-4-yl]pyrazolo[1,5-a]pyrimidine-3-carboxamide] | 0.42 | 120 | 0.31
16 | CSc1ccc(OC(F)F)c(-c2nn(CC(=O)N3CCC(CN4CCN(CC(=O)N(C)C)C[C@H]4C)CC3)cc2NC(=O)c2cnn3cccnc23)c1 [Example 87, N-[3-[2-(difluoromethoxy)-5-methylsulfanyl-phenyl]-1-[2-[4-[[(2R)-4-[2-(dimethylamino)-2-oxo-ethyl]-2-methyl-piperazin-1-yl]methyl]-1-piperidyl]-2-oxo-ethyl]pyrazol-4-yl]pyrazolo[1,5-a]pyrimidine-3-carboxamide] | 0.61 | 35 | 0.39
17 | CSc1ccc(OC(F)F)c(-c2nn(CC(=O)N3CCC(N4CCN(CC(=O)N5CCOCC5)CC4)CC3)cc2NC(=O)c2cnn3cccnc23)c1 [Example 88, N-[3-[2-(difluoromethoxy)-5-methylsulfanyl-phenyl]-1-[2-[4-[4-(2-morpholino-2-oxo-ethyl)piperazin-1-yl]-1-piperidyl]-2-oxo-ethyl]pyrazol-4-yl]pyrazolo[1,5-a]pyrimidine-3-carboxamide] | 0.49 | 470 | 0.32
18 | CSc1ccc(OC(F)F)c(-c2nn(CC(=O)N3CCN(C4CCN(CC(=O)N(C)C)CC4)CC3)cc2NC(=O)c2cnn3cccnc23)c1 [Example 89, N-[3-[2-(difluoromethoxy)-5-methylsulfanyl-phenyl]-1-[2-[4-[1-[2-(dimethylamino)-2-oxo-ethyl]-4-piperidyl]piperazin-1-yl]-2-oxo-ethyl]pyrazol-4-yl]pyrazolo[1,5-a]pyrimidine-3-carboxamide] | 0.78 | 200 | 0.51
19 | CSc1ccc(OC(F)F)c(-c2nn(Cc3cn(C4CCN(C5COC5)CC4)nn3)cc2NC(=O)c2cnn3cccnc23)c1 [Example 90, N-[3-[2-(difluoromethoxy)-5-methylsulfanyl-phenyl]-1-[[1-[1-(oxetan-3-yl)-4-piperidyl]triazol-4-yl]methyl]pyrazol-4-yl]pyrazolo[1,5-a]pyrimidine-3-carboxamide] | 0.14 | 22 | 0.32
20 | CSc1ccc(OC(F)F)c(-c2nn(C)cc2NC(=O)c2cnn3cccnc23)c1 [Example 91, N-[3-[2-(difluoromethoxy)-5-methylsulfanyl-phenyl]-1-methyl-pyrazol-4-yl]pyrazolo[1,5-a]pyrimidine-3-carboxamide] | 0.071 | 3.9 | 0.13
